Reference: article PMC9516332 (Frontiers in Oncology, 2022)
Where two headings read alike, the source gives them in different places.

Tests used:
Assay in all cases: Kinase panel profiling at 1 µmol/L (MSA or IMAP), percentage inhibition
Type in all cases: biochemical
[1] = target: T1, panel of 255 wild-type kinases (Homo sapiens, UniProt Q13237); conditions: read-out: %-inhibition CGK2
T1 sequence (Q13237 1-762): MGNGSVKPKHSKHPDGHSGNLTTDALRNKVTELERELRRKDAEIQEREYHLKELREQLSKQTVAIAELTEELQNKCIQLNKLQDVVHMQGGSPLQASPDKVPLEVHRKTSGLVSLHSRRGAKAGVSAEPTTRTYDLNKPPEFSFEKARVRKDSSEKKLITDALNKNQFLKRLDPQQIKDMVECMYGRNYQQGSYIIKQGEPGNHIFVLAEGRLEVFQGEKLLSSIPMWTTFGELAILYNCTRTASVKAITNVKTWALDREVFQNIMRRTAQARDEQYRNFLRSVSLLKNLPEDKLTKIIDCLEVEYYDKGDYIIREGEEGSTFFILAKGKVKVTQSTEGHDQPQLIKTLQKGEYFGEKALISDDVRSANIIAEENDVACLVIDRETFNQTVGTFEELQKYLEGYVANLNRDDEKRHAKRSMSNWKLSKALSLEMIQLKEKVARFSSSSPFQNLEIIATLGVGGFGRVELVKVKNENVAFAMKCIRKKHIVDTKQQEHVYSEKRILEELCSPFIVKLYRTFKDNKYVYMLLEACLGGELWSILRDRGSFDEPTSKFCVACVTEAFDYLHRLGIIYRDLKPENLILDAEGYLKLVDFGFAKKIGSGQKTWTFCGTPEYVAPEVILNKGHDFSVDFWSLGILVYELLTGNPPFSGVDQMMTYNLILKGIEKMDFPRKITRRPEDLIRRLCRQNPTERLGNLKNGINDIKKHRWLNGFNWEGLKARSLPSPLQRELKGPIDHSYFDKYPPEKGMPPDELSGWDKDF

[2] = target: panel of 255 wild-type kinases (Homo sapiens, UniProt Q14289); conditions: read-out: %-inhibition at 1 µmol/L, PYK2
[3] = target: panel of 255 wild-type kinases (Homo sapiens, UniProt Q00535); conditions: read-out: %-inhibition CDK5/p25
[4] = target: panel of 255 wild-type kinases (Homo sapiens, UniProt P45984); conditions: read-out: %-inhibition at 1 µmol/L, JNK2
[5] = target: T2, panel of 255 wild-type kinases (Homo sapiens, UniProt O14757); conditions: read-out: %-inhibition CHK1
T2 sequence (O14757 1-476): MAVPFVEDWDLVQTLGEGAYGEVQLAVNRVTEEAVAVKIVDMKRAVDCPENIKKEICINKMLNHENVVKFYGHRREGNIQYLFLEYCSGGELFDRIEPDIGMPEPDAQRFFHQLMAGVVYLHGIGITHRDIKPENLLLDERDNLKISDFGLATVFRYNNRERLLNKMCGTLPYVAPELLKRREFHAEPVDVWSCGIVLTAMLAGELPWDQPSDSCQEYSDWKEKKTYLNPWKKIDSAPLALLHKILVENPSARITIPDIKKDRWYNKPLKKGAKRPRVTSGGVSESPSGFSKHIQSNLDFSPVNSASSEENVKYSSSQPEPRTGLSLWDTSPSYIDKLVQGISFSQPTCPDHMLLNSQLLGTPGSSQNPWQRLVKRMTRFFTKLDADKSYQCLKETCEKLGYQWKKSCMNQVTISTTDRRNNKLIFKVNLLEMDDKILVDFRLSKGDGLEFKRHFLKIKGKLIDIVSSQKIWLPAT

[6] = target: T3, panel of 255 wild-type kinases (Homo sapiens, UniProt Q96BR1); conditions: read-out: %-inhibition at 1 µmol/L, SGK3
T3 sequence (Q96BR1 1-496): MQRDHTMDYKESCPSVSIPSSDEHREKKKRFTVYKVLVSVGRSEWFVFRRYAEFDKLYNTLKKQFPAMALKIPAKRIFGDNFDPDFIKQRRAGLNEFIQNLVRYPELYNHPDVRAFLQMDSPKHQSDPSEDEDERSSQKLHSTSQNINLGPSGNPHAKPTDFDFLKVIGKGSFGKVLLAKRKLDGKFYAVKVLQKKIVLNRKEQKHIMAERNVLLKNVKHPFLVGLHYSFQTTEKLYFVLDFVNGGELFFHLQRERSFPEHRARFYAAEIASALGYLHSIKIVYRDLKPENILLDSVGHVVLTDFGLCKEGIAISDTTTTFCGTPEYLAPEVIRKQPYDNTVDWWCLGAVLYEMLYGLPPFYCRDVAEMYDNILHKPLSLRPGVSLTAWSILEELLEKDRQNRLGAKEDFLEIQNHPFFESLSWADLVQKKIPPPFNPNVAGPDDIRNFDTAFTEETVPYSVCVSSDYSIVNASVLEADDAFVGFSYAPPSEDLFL

[7] = target: panel of 255 wild-type kinases (Homo sapiens, UniProt Q9NYY3); conditions: read-out: %-inhibition at 1 µmol/L, PLK2
[8] = CGK2 kinase assay, 1 µmol/L single concentration
[9] = kinase PYK2, 1 µmol/L single concentration
[10] = CDK5/p25 kinase assay, 1 µmol/L single concentration
[11] = kinase JNK2, 1 µmol/L single concentration
[12] = CHK1 kinase assay, 1 µmol/L single concentration
[13] = kinase SGK3, 1 µmol/L single concentration
[14] = kinase PLK2, 1 µmol/L single concentration

Row | SMILES | inhibition at 1 µM [1, 8] | inhibition at 1 µM [2, 9] | inhibition at 1 µM [3, 10] | inhibition at 1 µM [4, 11] | inhibition at 1 µM [5, 12] | inhibition at 1 µM [6, 13] | inhibition at 1 µM [7, 14] | inhibition at 1 µM [1] | inhibition at 1 µM [2] | inhibition at 1 µM [3] | inhibition at 1 µM [4] | inhibition at 1 µM [5] | inhibition at 1 µM [6] | inhibition at 1 µM [7]
1 | COC(=O)N[C@@H](C)CNc1nccc(-c2cn(C(C)C)nc2-c2cc(Cl)cc(NS(C)(=O)=O)c2F)n1 [encorafenib] | 0.267% | 4% | -17% | 61% | 14% | 5% | -2.68% | – | – | – | – | – | – | –
2 | C[C@H](Nc1ncnc2nc[nH]c12)c1cc2cccc(Cl)c2c(=O)n1-c1ccccc1 [duvelisib] | -0.775% | -3.37% | -11% | 2% | 5.69% | 1.26% | 13% | – | – | – | – | – | – | –
3 | CCN1CCN(c2ccc(Nc3cc(N(C)C(=O)Nc4c(Cl)c(OC)cc(OC)c4Cl)ncn3)cc2)CC1 [infigratinib] | -2% | 13% | -17% | 2.8% | -1.07% | -3% | 3.65% | – | – | – | – | – | – | –
4 | CNC(=O)c1ccc(-c2cnc3ncc(Cc4ccc5ncccc5c4)n3n2)cc1F [capmatinib] | – | – | – | – | – | – | – | -1.13% | -2.25% | -20% | -0.668% | 0.209% | -2.49% | 7%
5 | FC(F)(F)c1ccc(CNc2ccc(Cc3c[nH]c4ncc(Cl)cc34)cn2)cn1 [pexidartinib] | 17% | 3% | -21% | 2.5% | 5.6% | -0.803% | 7% | – | – | – | – | – | – | –
6 | O=C(Nc1cnn2ccc(N3CCC[C@@H]3c3cc(F)ccc3F)nc12)N1CC[C@H](O)C1 [larotrectinib] | -0.443% | 5.34% | -22% | -0.671% | 14% | -4.61% | 2.14% | – | – | – | – | – | – | –
7 | CCc1nc(C(N)=O)c(Nc2ccc(N3CCC(N4CCN(C)CC4)CC3)c(OC)c2)nc1NC1CCOCC1 [gilteritinib] | 82% | 93% | 25% | 44% | 22% | -18% | 4.71% | – | – | – | – | – | – | –
8 | CCn1c(=O)c(-c2cc(NC(=O)Nc3ccccc3)c(F)cc2Br)cc2cnc(NC)cc21 [ripretinib] | 0.547% | 19% | -19% | 35% | 3.57% | -9% | 6% | – | – | – | – | – | – | –
9 | CN1CCN(c2ccc(C(=O)Nc3n[nH]c4ccc(Cc5cc(F)cc(F)c5)cc34)c(NC3CCOCC3)c2)CC1 [entrectinib] | 4.42% | 96% | – | 7% | 14% | 0.413% | 14% | – | – | – | – | – | – | –
10 | Cn1cnc2c(F)c(Nc3ccc(Br)cc3F)c(C(=O)NOCCO)cc21 [binimetinib] | 2.58% | 2.41% | -21% | -5.47% | 9% | -0.74% | -5% | – | – | – | – | – | – | –
11 | COc1ccc(CN2C3CC2CN(c2ccc(-c4cc(OCC(C)(C)O)cn5ncc(C#N)c45)cn2)C3)cn1 [selpercatinib] | 16% | 12% | -8.52% | -1.07% | 29% | -0.72% | 4% | – | – | – | – | – | – | –
12 | Cc1nc(NC(=O)N2CCC[C@H]2C(N)=O)sc1-c1ccnc(C(C)(C)C(F)(F)F)c1 [alpelisib] | -5% | -4% | -14% | 0.494% | 11% | 1.47% | 10% | – | – | – | – | – | – | –
13 | Cc1cc(Nc2ncnc3ccc(NC4=NC(C)(C)CO4)cc23)ccc1Oc1ccn2ncnc2c1 [tucatinib] | -0.162% | 1.48% | -5% | 1.47% | 5.71% | -4% | 7% | – | – | – | – | – | – | –
14 | Cn1cnc2c(F)c(Nc3ccc(Br)cc3Cl)c(C(=O)NOCCO)cc21 [selumetinib] | -1.64% | -0.622% | -11% | -2.13% | 2.73% | -4% | 2.78% | – | – | – | – | – | – | –
15 | COc1cc2ncnc(Nc3ccc(F)c(Cl)c3)c2cc1NC(=O)/C=C/CN1CCCCC1 [dacomitinib] | 10% | 1.4% | -29% | 1.27% | 10% | -20% | 5% | – | – | – | – | – | – | –
16 | C[C@H]1Oc2cc(cnc2N)-c2c(nn(C)c2C#N)CN(C)C(=O)c2ccc(F)cc21 [lorlatinib] | -3% | – | -9% | 3.24% | 12% | 7.56% | 10% | – | – | – | – | – | – | –
17 | CCN1C(=O)N(c2c(F)c(OC)cc(OC)c2F)Cc2cnc3[nH]c(CN4CCOCC4)cc3c21 [pemigatinib] | 1.58% | 8% | -12% | 1.27% | 12% | -7% | 0.757% | – | – | – | – | – | – | –
18 | CO[C@]1(C(=O)N[C@@H](C)c2ccc(-n3cc(F)cn3)nc2)CC[C@H](c2nc(C)cc(Nc3cc(C)[nH]n3)n2)CC1 [pralsetinib] | 25% | 64% | 43% | 5% | 11% | -0.536% | 6.54% | – | – | – | – | – | – | –
19 | C=CC(=O)N1CCC([C@@H]2CCNc3c(C(N)=O)c(-c4ccc(Oc5ccccc5)cc4)nn32)CC1 [zanubrutinib] | -0.389% | 5.37% | -17% | -1.18% | 16% | -3.7% | 0.329% | – | – | – | – | – | – | –
20 | Cn1cc(-c2cc3c(N4CCN(c5ncc([C@@](C)(N)c6ccc(F)cc6)cn5)CC4)ncnn3c2)cn1 [avapritinib] | 4.65% | 1% | 11% | 1.1% | 40% | -2% | 7% | – | – | – | – | – | – | –
